# Data reported in paper PMC3570346, “PET imaging of brain inflammation during early epileptogenesis in a rat model of temporal lobe epilepsy” (EJNMMI Research, 2012).
# Target: T1, TSPO (Rattus norvegicus, UniProt P16257)
# T1 construct: from tissue; host or cells: coronal cryostat sections (20 μm) of frozen rat brain, control and KASE animals
# Test: In vitro [^125I]-CLINDE autoradiography on coronal brain sections (post-mortem)
# Format: binding
# Experimental: TSPO binding density was assessed using the selective TSPO ligands, ^125I]-CLINDE and ^18 F]-PBR111 as described previously. Briefly, adjacent sets of unfixed […] sections were incubated in triplicate with 3 nM ^125I]-CLINDE or 4 nM ^18F]-PBR111 in 50 mM Tris buffer (pH 7.4 at 4°C) for 1 h. Non-specific binding was assessed with co-incubation with 10 μM PK11195 (Sigma-Aldrich). Sections were washed in ice cold Tris buffer (2 × 2 min), then distilled water (1 min), before being air dried on a slide warmer at 37°C. They were exposed to film, with ^14C] polymer standards (ARC, USA) for calibration of optical density to becquerel per milligram activity. Films were scanned using a BioRad GS-800 calibrated densitometer (Bio-Rad Laboratories, Hercules, CA, USA), and exposure times were chosen such that the optical density range of the sections was within the pseudolinear response range of the film.
# Autoradiographic images were calibrated (cubic fit between optical density and [^14C]-standard values) and quantified using ImageJ ( http://rsbweb.nih.gov/ij/). […] Regions of interest were drawn blinded for control and KASE groups, converted to kilobecquerel per milligram and specific binding calculated.
# Coronal brain sections (20 μm, −3.24 mm from bregma according to [21]) were cut using a cryostat, thaw-mounted onto Polysine® microscope slides (LabServ, Australia), and stored at −80°C. During cutting, pictures were taken in EB-injected animals to evaluate extravasation macroscopically. Adjacent sets of unfixed rat brain sections were analysed in triplicate for quantitative autoradiography for TSPO with ^125I]-CLINDE, OX-42 (microglial activation) immunohistochemistry and cresyl violet (cell loss).
# Methodology regarding immunohistochemistry was performed as above. Semi-quantitative analysis included visual scoring of OX-42 signal as follows: mild (+), moderate (++) and intense (+++) OX-42 signals. For autoradiography, a preincubation step of 15 min in Tris buffer (50 mM, pH 7.4) was added to remove exogenous TSPO ligand. TSPO binding was assessed as described above in the cortex, corpus callosum, hippocampus and hippocampal subregions (CA1, CA2 and CA3/hilus), thalamus, hypothalamus, amygdala and piriform cortex. Histological verification of cell loss in hippocampal pyramidal cell layers (CA1, CA2, CA3 and hilus) was performed on Nissl-stained sections (using Cresyl Echt Violet) blinded for the treatment group.
# T1 sequence (P16257 whole entry): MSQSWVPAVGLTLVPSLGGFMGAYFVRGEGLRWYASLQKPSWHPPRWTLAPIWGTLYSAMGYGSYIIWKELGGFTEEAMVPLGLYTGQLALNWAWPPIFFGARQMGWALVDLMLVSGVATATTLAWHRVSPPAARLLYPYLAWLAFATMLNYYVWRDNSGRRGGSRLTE
smiles,measurement,setting,value
CCN(CC)C(=O)Cc1c(-c2ccc(I)cc2)nc2ccc(Cl)cn12 [[^125I]-CLINDE],"% increase of specific binding, KASE vs control",Hippocampus (CA1),613%
same,"% increase of specific binding, KASE vs control",Hippocampus (CA2),491%
same,"% increase of specific binding, KASE vs control",Hippocampus (CA3)/hilus,860%
same,"% increase of specific binding, KASE vs control","Hippocampus (whole, dorsal)",226%
